Holding throughout (type): cell-based, mouse
Series [1] concerns AR 1.0 cells. Kind of series: Drug accumulation assay (tritiated daunorubicin, AR 1.0 cells). Particulars: for Emax / MAX accumulation (% 100 μm VRP): 100% = accumulation with 100 μM Verapamil, compounds 100 nM to 100 μM; for Emax: read-out: MAX accumulation (% 100 μm VRP); for IC50: daunorubicin accumulation, 37° C., DNR 2 μM. How it is done:
(§1) The EMT6 mouse mammary carcinoma cell line and the MDR resistant subline AR 1.0 were cultured in RPMI 1640 medium containing 10% foetal calf serum and 2mM glutamine at 37° C. in 5% CO2. Cells were passaged between 1 in 200 and 1 in 2000 in the case of the parental cell line and between 1 in 20 and 1 in 200 in the case of the MDR resistant subline, after trypsinisation (0.25% trypsin, 0.2 gl^-1, EDTA).
1. Drug accumulation assay
AR 1.0 cells were seeded into 96 well opaque culture plates (Canberra Packard). The assay medium contained a mixture of tritiated Daunorubicin (DNR), a cytotoxic agent, and unlabelled DNR (0.25μ Ci/ml; 2 μM). Compounds of formula A were serially diluted in assay medium over a range of concentrations from 100 nM to 100 μM. The cells were incubated at 37° C. for 1 hr before washing and counting of cell associated radioactivity. Each assay included a titration of the known resistance modifying agent Verapamil as positive control. Results were expressed as % maximum accumulation where 100% accumulation is that observed in the presence of 100 μM Verapamil.

Series [2] concerns AR 1.0 cells. As to the kind of experiment: Proliferation/toxicity assay, compound alone and with cytotoxic agent (sulphorhodamine B).
Series [3] relates to AR 1.0 cells. As to the kind of experiment: Potentiation of Doxorubicin toxicity (potentiation index, AR 1.0 cells). As to conditions: doxorubicin 0.5 nM-50 μM, four days; for Potentiation Index (at 5 μM): Conc Comp 5 μM; for Potentiation Index: Conc Comp 3 μM. How it is done:
as §1
2. Potentiation of Doxorubicin toxicity
Compounds of formula A were examined for their ability to potentiate the toxicity of doxorubicin in AR 1.0 cells. In initial proliferation assays compounds were titrated against a fixed concentration of doxorubicin (0.5-1 μM) which alone is non-toxic to AR 1.0 cells. Incubations with doxorubicin were over a four day period before quantitation of proliferation using the calorimetric sulphorhodamine B assay (Skehan et al; J. Natl. Cancer Inst. 82 pp 1107-1112 (1990)).
Cells were cultured for four days with concentrations of doxorubicin over the range of 0.5 nM-50 μM in the presence of Verapramil at its maximum subtoxic level determined from previous experiments. Proliferation was quantified as described by Skehan et al, loc cit. The IC50 (concentration required to reduce proliferation to 50% of the untreated controls) for doxorubicin alone and with the Verapamil were derived and used to calculate the potentiation index (PI): […]

Where [4] appears, read: Mus musculus, compound alone, read-out: COMPOUND TOXICITY (IC50 μM).
The mark [5] stands for this setting: cytotoxic agent (doxorubicin) 1.00 μg/ml, 5760 min, read-out: TOXICITY WITH CYTOTOXIC AGENT (IC 50 μM).
The mark [6] stands for this setting: cytotoxic agent (doxorubicin) 0.50 μg/ml, 5760 min, read-out: TOXICITY WITH CYTOTOXIC AGENT (IC 50 μM).
Setting [7] is: compound alone, read-out: COMPOUND TOXICITY (IC50 μM).

Structures can show the parent of a compound that is named as a salt.

`COc1ccc(/C=c2/c(=O)[nH]/c(=C\c3ccoc3)c(=O)n2C)cc1` [Compound 1563, (3Z,6Z)-3-(3-Furyl)methylene-6-(4-methoxybenzylidene)-1-methyl-2,5-piperazinedione]: in the series with AR 1.0 cells [1] (Mus musculus, 1 hr), the Emax came out at 32.9%.
`COc1ccc(/C=c2/c(=O)[nH]/c(=C\c3cccs3)c(=O)n2C)cc1` [Compound 1564, (3Z,6Z)-6-(4-Methoxybenzylidene)-1-methyl-3-(2-thienylmethylene)-2,5-piperazinedione]: the Emax in the series with AR 1.0 cells [1] (Mus musculus, 1 hr) turned out to be 46.3%.
For the compound `COc1ccc(/C=c2/c(=O)[nH]/c(=C\c3cn(C(=O)OC(C)(C)C)c4ccccc34)c(=O)n2C)cc1` [Compound 1565, (3Z,6Z)-6-(4-Methoxybenzylidene)-1-methyl-3-(1-tert-butoxycarbonyl-3-indolyl)methylene-2,5-piperazinedione], the Emax with AR 1.0 cells [1] (Mus musculus, 1 hr) came out at 37.3%.
Same read-out and setting: under `Cn1c(=O)/c(=C/c2ccccc2)[nH]c(=O)/c1=C/c1cccs1` [Compound 1569, (3Z,6Z)-3-Benzylidene-1-methyl-6-(2-thienylmethylene)-2,5-piperazinedione] stands 46%.
As for `COc1ccc(/C=c2\[nH]c(=O)/c(=C/c3ccoc3)n(C)c2=O)cc1` [Compound 1596], the Emax in the series with AR 1.0 cells [1] (Mus musculus, 1 hr) was 47.7%.
As for `COc1ccc(/C=c2\[nH]c(=O)/c(=C/c3cccs3)n(C)c2=O)cc1` [Compound 1597, (3Z,6Z)-3-(4-Methoxybenzylidene)-1-methyl-6-(2-thienylmethylene)-2,5-piperazinedione], the Emax with AR 1.0 cells [1] (Mus musculus, 1 hr) was determined as 59.1%. Moreover, the IC50 in the series with AR 1.0 cells [1] (Mus musculus, 1 h) stood at 50 µM; in the series with AR 1.0 cells [2] (setting [4]), 25 µM; in the series with AR 1.0 cells [2] (setting [5]), 6 µM.
On to `Cn1c(=O)/c(=C/c2ccccc2)[nH]c(=O)/c1=C/c1ccsc1` [Compound 1641, (3Z,6Z)-3-Benzylidene-1-methyl-6-(3-thienylmethylene)-2,5-piperazinedione], for which the Emax with AR 1.0 cells [1] (Mus musculus, 1 hr) was determined as 50.5%.
Regarding `COc1ccc(/C=c2/c(=O)n(C)/c(=C\C=Cc3ccccc3)c(=O)n2C)cc1` [Compound 1777, (3Z,6Z)-3-Cinnamylidene-6-(4-methoxybenzylidene)-1,4-dimethyl-2,5-piperazinedione], the Emax in the series with AR 1.0 cells [1] (Mus musculus, 1 hr) was 50%. The IC50 with AR 1.0 cells [1] (Mus musculus, 1 h) came out at 80 µM.
As to `Cn1c(=O)/c(=C/c2cn(C(=O)OC(C)(C)C)c3ccccc23)n(C)c(=O)/c1=C/c1ccccc1` [Compound 1800, (3Z,6Z)-3-Benzylidene-1,4-dimethyl-6-(1-tert-butoxycarbonyl-3-indolyl)methylene-2,5-piperazinedione], the IC50 is 7 µM in the series on AR 1.0 cells [1] (Mus musculus, 1 h); 10 µM in the series on AR 1.0 cells [2] (setting [4]); 0.8 µM in the series on AR 1.0 cells [2] (setting [5]). For the same compound, the “Potentiation Index (at 5 μM)” value in the series on AR 1.0 cells [3] is on record as 40.
As to `Cn1c(=O)/c(=C/c2cn(C(=O)OC(C)(C)C)c3ccccc23)n(C)c(=O)/c1=C/c1cccs1` [Compound 1834, (3Z,6Z)-1,4-Dimethyl-3-(1-tert-butoxycarbonyl-3-indolyl)methylene-6-(2-thenylidene)-2,5-piperazinedione], the IC50 with AR 1.0 cells [1] (Mus musculus, 1 h) worked out at 5 µM; in the series on AR 1.0 cells [2] (setting [4]), 10 µM; in the series on AR 1.0 cells [2] (setting [6]), 0.8 µM. Moreover, the “Potentiation Index” value in the series with AR 1.0 cells [3] stood at 30.
`O=c1[nH]/c(=C\c2ccncc2)c(=O)n(Cc2ccccc2)/c1=C\c1ccccc1` [Compound 1839, (3Z,6Z)-1-Benzyl-6-benzylidene-3-(4-pyridyl)methylene-2,5-piperazinedione]: the IC50 with AR 1.0 cells [1] (Mus musculus, 1 h) worked out at 20 µM; in the series on AR 1.0 cells [2] (setting [7]), 30 µM; in the series with AR 1.0 cells [2] (setting [6]), 1.5 µM. Besides, the “Potentiation Index” value in the series with AR 1.0 cells [3] is given as 15.
As to `O=c1[nH]/c(=C\c2ccncc2)c(=O)n(Cc2ccccc2)/c1=C\c1ccccc1` [Compound 1840, (3Z,6Z)-1-Benzyl-6-benzylidene-3-(4-pyridyl)methylene-2,5-hydrochloride], the IC50 with AR 1.0 cells [1] (1 hr) was 12 µM; in the series with AR 1.0 cells [2] (setting [7]), 5 µM; in the series with AR 1.0 cells [2] (setting [6]) it was 1 µM.
Consider `Cn1c(=O)/c(=C/c2cn(C(=O)OC(C)(C)C)c3ccccc23)n(C)c(=O)/c1=C/c1c(Cl)cccc1Cl` [Compound 1873, (3Z,6Z)-6-(2,6-dichlorobenzylidene)-3-(1-tertbutoxycarbonyl-3-indolyl)methylene-1,4-dimethyl-2,5-piperazinedione], for which, in the series on AR 1.0 cells [1] (Mus musculus, 1 hr), the Emax was determined as 56%. In addition, the IC50 was 5 µM in the series on AR 1.0 cells [1] (Mus musculus, 1 h) and 8 µM with AR 1.0 cells [2] (setting [4]).
In the case of `COc1ccc(/C=c2/c(=O)n(Cc3ccccc3)/c(=C\c3cn(C(=O)OC(C)(C)C)c4ccccc34)c(=O)n2C)cc1` [Compound 1874, (3Z,6Z)-4-benzyl-3-(1-tertbutoxycarbonyl-3-indolyl)methylene-6-(4-methoxybenzylidene)-1-methyl-2,5-piperazinedione], in the series on AR 1.0 cells [1] (Mus musculus, 1 h), the IC50 was determined as 10 µM. The “Potentiation Index (at 5 μM)” value in the series with AR 1.0 cells [3] is reported as 20.
Take `Cn1c(=O)/c(=C/c2cn(C(=O)OC(C)(C)C)c3ccccc23)n(C)c(=O)/c1=C/c1ccoc1` [Compound 1875, (3Z,6Z)-6-(3-furylmethylene)-6-(1-tertbutoxycarbonyl-3-indolyl)methylene-1,4-dimethyl-2,5-piperazinedione]: the IC50 in the series on AR 1.0 cells [1] (Mus musculus, 1 h) was 5 µM; with AR 1.0 cells [2] (setting [4]), 10 µM; in the series on AR 1.0 cells [2] (setting [6]) it was 0.8 µM.
In the series with AR 1.0 cells [1] (Mus musculus, 1 h), `Cn1c(=O)/c(=C/c2ccccc2[N+](=O)[O-])n(C)c(=O)/c1=C/c1cccs1` [Compound 1877, (3Z,6Z)-1,4-dimethyl-6-(2-nitrobenzylidene)-3-(2-thienylmethylene)-2,5-piperazinedione] had an IC50 of 20 µM.
On to `COc1ccc(/C=c2/c(=O)n(Cc3ccccc3)/c(=C\c3ccoc3)c(=O)n2C)cc1` [Compound 1880, (3Z,6Z)-4-Benzyl-3-(3-furylmethylene)-6-(4-methoxybenzylidene)-1-methyl-2,5-piperazinedione], for which the IC50 in the series with AR 1.0 cells [1] (Mus musculus, 1 h) is 7 µM; in the series with AR 1.0 cells [2] (setting [4]), 10 µM.
Turning to `Cn1c(=O)/c(=C/c2cn(C(=O)OC(C)(C)C)c3ccccc23)nc(OCCCN2C(=O)c3ccccc3C2=O)/c1=C/c1ccccc1` [Compound 1895, (3Z,6Z)-6-Benzylidene-1-methyl-5-(3-phthalimidopropoxy)-3-(l-tert-butoxycarbonyl-3-indolyl)methylene-3,6-dihydro-2-pyrazinone], the Emax with AR 1.0 cells [1] (Mus musculus, 1 hr) is 12%.
Take `Cn1c(=O)/c(=C/c2c[nH]c3ccccc23)n(C)c(=O)/c1=C/c1ccccc1` [Compound 1896, (3Z,6Z)-3-Benzylidene-6-(3-indoly)methylene-1,4-dimethyl-2,5-piperazinedione]: the IC50 in the series on AR 1.0 cells [1] (Mus musculus, 1 h) came out at 12 µM; in the series on AR 1.0 cells [2] (setting [4]) it was 30 µM; in the series on AR 1.0 cells [2] (setting [6]) it was 4 µM.
`Cn1c(=O)/c(=C/c2ccccc2)n(CCCN2C(=O)CCC2=O)c(=O)/c1=C/c1ccccc1` [Compound 1932, (3Z,6Z)-3,6-Dibenzylidene-4-methyl-1-(3-succinimidopropyl)-2,5-piperazinedione] displayed an IC50 with AR 1.0 cells [1] (Mus musculus, 1 h) of 10 µM.
In the series with AR 1.0 cells [1] (Mus musculus, 1 h), `Cn1c(=O)/c(=C/c2ccccc2)nc(OCCCN2C(=O)CCC2=O)/c1=C/c1ccccc1` [Compound 1934, (3Z,6Z)-3,6-Dibenzylidene-1-methyl-5-(3-succinmidopropoxy)-3,6-dihydro-2-pyrazinone] gave an IC50 of 1 µM.
Take `Cn1c(=O)/c(=C/c2ccccc2)nc(OCCCN2C(=O)C(=O)c3ccccc32)/c1=C/c1ccccc1` [Compound 1935, (3Z,6Z)-3,6-Dibenzylidene-5-(2,3-dioxo-1-indolinyl)propoxy-1-methyl-3,6-dihydro-2-pyrazinone]: the IC50 with AR 1.0 cells [1] (Mus musculus, 1 h) amounted to 6 µM.
On to `COc1cccc2c1C(=O)c1c(O)c3c(c(O)c1C2=O)C[C@@](O)(C(=O)CO)C[C@@H]3O[C@H]1C[C@H](N)[C@H](O)[C@H](C)O1` [doxorubicin, reference compound], for which the “toxicity of doxorubicin alone to AR 1.0 cells” value in the series on AR 1.0 cells [2] (0.5-1 μM, alone) is listed as “non-toxic”.
On to “(3Z,6Z)-3-Benzylidene-6-(2-furyl)-1,4-dimethyl-2,5-piperazinedione [Compound 1799]”, for which the “MAX accumulation (% 100 μm VRP)” value in the series on AR 1.0 cells [1] (1 hr) is recorded as 40.0%.
“(3Z,6Z)-6-Benzylidene-1-methyl-3-(1-tert-butoxycarbonyl-3-(l-tert-butoxycarbonyl-3-indolyl)methylene-2,5-piperazinedione [Compound 1894]”: the “MAX accumulation (% 100 μm VRP)” value with AR 1.0 cells [1] (1 hr) is 36.0%.
Regarding “(3Z,6Z)-6-Benzylidene-3-furylidene-1,4-dimethyl-2,5-piperazinedione [Compound 1836]”, the “MAX accumulation (% 100 μm VRP)” value in the series with AR 1.0 cells [1] (1 hr) turned out to be 14.0%.

(Values after patent publication US5861400A, “Pharmaceutical compounds” (Xenova Limited, priority 1994, dated 1999).)
